{"source": "paper PMC7125926", "about": "(Antiviral Research, 2015)", "key": {"[1]": {"system": "IP-10", "experiment": "tissue or blood", "type": "cell-based, mouse"}, "[2]": {"system": "PR8 (H1N1) influenza virus", "type": "cell-based"}, "[3]": {"system": "influenza virus", "conditions": "mouse, cited from earlier work"}, "[4]": {"system": "influenza virus", "type": "in vivo, mice", "conditions": "Fig. S5"}, "[5]": {"experiment": "MTT assay of drug toxicity in mouse lung slices", "type": "cell-based"}, "[6]": {"system": "influenza A virus", "conditions": "ref An et al., 2014; cited from earlier work"}, "[7]": {"conditions": "read-out: IP-10-EC50: 50% effective concentration determined by ELISA of IP-10"}, "[8]": {"conditions": "read-out: NA-EC50: 50% effective concentration determined by NA activity assay"}, "[9]": {"conditions": "Mus musculus, 48 h, read-out: IP-10-EC50: 50% effective concentration determined by ELISA of IP-10"}}, "note": "Several values for one entry are separate records, joined by “and”; a condition that tells them apart may be missing. Equal entries are not always repeated. Entries after “also recorded” stand apart in the source; their conditions may differ. Structures can show the parent of a compound that is named as a salt. Where two headings read alike, the source gives them in different places.", "data": [{"smiles": "CC(C)=C1C/C=C(\\C)CC/C=C(\\C)CC1=O", "note": "[Gemacrone]", "values": [{"measurement": "EC50", "setting": "[1]; [7]", "value": 17.6, "unit": "µM"}, {"measurement": "effect on virus replication / NA activity in lung slices (in words)", "setting": "[2]", "value": "efficiently inhibited virus replication"}, {"measurement": "EC50", "setting": "[2]; [8]", "value": 23.1, "unit": "µM"}, {"measurement": "In vivo: the protection effect of mice from lethal influenza infection", "setting": "[3]", "value": "+"}]}, {"smiles": "CN(C)CCCOc1nn(Cc2ccccc2)c2ccccc12", "note": "[Benzydamine]", "values": [{"measurement": "protection of mice from lethal doses of influenza virus infection (in words)", "setting": "[4]", "value": "failed to protect mice"}, {"measurement": "CC50 at 48 h", "setting": "[5]", "value": 113, "unit": "µM"}, {"measurement": "antiviral activity in MDCK cells (in words)", "setting": "[6]", "value": "known antiviral activity"}, {"measurement": "effect on IP-10 levels in lung slices (in words)", "setting": "[1]", "value": "inhibited neither"}, {"measurement": "effect on virus replication / NA activity in lung slices (in words)", "setting": "[2]", "value": "inhibited neither"}]}, {"smiles": "CC(C)OC(=O)C(C)(C)Oc1ccc(C(=O)c2ccc(Cl)cc2)cc1", "note": "[Fenofibrate]", "values": [{"measurement": "protection of mice from lethal doses of influenza virus infection (in words)", "setting": "[4]", "value": "failed to protect mice"}, {"measurement": "CC50 at 48 h", "setting": "[5]", "value": "> 200", "unit": "µM"}, {"measurement": "antiviral activity in MDCK cells (in words)", "setting": "[6]", "value": "known antiviral activity"}, {"measurement": "effect on IP-10 levels in lung slices (in words)", "setting": "[1]", "value": "inhibited neither"}, {"measurement": "effect on virus replication / NA activity in lung slices (in words)", "setting": "[2]", "value": "inhibited neither"}]}, {"smiles": "N#CC(=C(/N)Sc1ccccc1N)/C(C#N)=C(/N)Sc1ccccc1N", "note": "[U0126]", "values": [{"measurement": "effect on IP-10 levels in lung slices (in words)", "setting": "[1]", "value": "dose dependently decrease"}, {"measurement": "EC50", "setting": "[1]; [7]", "value": 1.3, "unit": "µM"}, {"measurement": "effect on virus replication / NA activity in lung slices (in words)", "setting": "[2]", "value": "dose dependent inhibition; also recorded: dose dependently decrease NA levels"}, {"measurement": "EC50", "setting": "[2]; [8]", "value": 12, "unit": "µM"}, {"measurement": "In vivo: the protection effect of mice from lethal influenza infection", "setting": "[3]", "value": "+"}]}, {"smiles": "CCCC(C(=O)OCCN(CC)CC)(c1ccccc1)c1ccccc1", "note": "[Proadifen]", "values": [{"measurement": "protection of mice from lethal doses of influenza virus infection (in words)", "setting": "[4]", "value": "failed to protect mice"}, {"measurement": "CC50 at 48 h", "setting": "[5]", "value": 32.2, "unit": "µM"}, {"measurement": "antiviral activity in MDCK cells (in words)", "setting": "[6]", "value": "known antiviral activity"}, {"measurement": "effect on IP-10 levels in lung slices (in words)", "setting": "[1]", "value": "inhibited neither"}, {"measurement": "effect on virus replication / NA activity in lung slices (in words)", "setting": "[2]", "value": "inhibited neither"}]}, {"smiles": "C[S+]([O-])c1ccc(-c2nc(-c3ccncc3)c(-c3ccc(F)cc3)[nH]2)cc1", "note": "(centres unmarked) [SB203580]", "values": [{"measurement": "CC50 at 48 h", "setting": "[5]", "value": "> 100", "unit": "µM"}, {"measurement": "effect on IP-10 levels in lung slices (in words)", "setting": "[1]", "value": "dose dependently decreased IP-10 levels"}, {"measurement": "effect on virus replication / NA activity in lung slices (in words)", "setting": "[2]", "value": "neither inhibited virus replication"}, {"measurement": "In vivo: the protection effect of mice from lethal influenza infection", "setting": "[3]", "value": "+"}]}, {"smiles": "O=C(O[C@@H]1Cc2c(O)cc(O)cc2O[C@@H]1c1cc(O)c(O)c(O)c1)c1cc(O)c(O)c(O)c1", "note": "[EGCG]", "values": [{"measurement": "effect on IP-10 levels in lung slices (in words)", "setting": "[1]", "value": "dose dependently decrease"}, {"measurement": "EC50", "setting": "[1]; [7]", "value": 3.3, "unit": "µM"}, {"measurement": "effect on virus replication / NA activity in lung slices (in words)", "setting": "[2]", "value": "dose dependently decrease NA levels"}, {"measurement": "EC50", "setting": "[2]; [8]", "value": 50.1, "unit": "µM"}, {"measurement": "In vivo: the protection effect of mice from lethal influenza infection", "setting": "[3]", "value": "+"}]}, {"smiles": "CCN(CC)CCOC(=O)C1(C2CCCCC2)CCCCC1", "note": "[Dicyclomine]", "values": [{"measurement": "effect on IP-10 levels in lung slices (in words)", "setting": "[1]", "value": "inhibited neither"}]}, {"smiles": "CCCCC/C=C/C=C1/C(=O)C=C[C@@H]1C/C=C\\CCCC(=O)O", "note": "[15d-PGJ2, 15-deoxy-Δ^12,14-prostaglandin J2]", "values": [{"measurement": "effect on IP-10 levels in lung slices (in words)", "setting": "[1]", "value": "dose dependently decreased IP-10 levels"}, {"measurement": "EC50", "setting": "[1]; [7]", "value": 0.2, "unit": "µM"}, {"measurement": "effect on virus replication / NA activity in lung slices (in words)", "setting": "[2]", "value": "neither inhibited virus replication"}, {"measurement": "inhibition of virus replication", "setting": "[3]; in vivo", "value": "does not inhibit virus replication"}, {"measurement": "mice protected from death against lethal influenza infection", "setting": "[3]; in vivo", "value": 79, "unit": "%"}, {"measurement": "In vivo: the protection effect of mice from lethal influenza infection", "setting": "[3]", "value": "+"}]}, {"smiles": "Clc1ccccc1C(c1ccccc1)(c1ccccc1)n1ccnc1", "note": "[Clotrimazole]", "values": [{"measurement": "protection of mice from lethal doses of influenza virus infection (in words)", "setting": "[4]", "value": "failed to protect mice"}, {"measurement": "CC50 at 48 h", "setting": "[5]", "value": 16.3, "unit": "µM"}, {"measurement": "antiviral activity in MDCK cells (in words)", "setting": "[6]", "value": "known antiviral activity"}, {"measurement": "effect on IP-10 levels in lung slices (in words)", "setting": "[1]", "value": "inhibited neither"}, {"measurement": "effect on virus replication / NA activity in lung slices (in words)", "setting": "[2]", "value": "inhibited neither"}]}, {"smiles": "NC(=O)c1ncn([C@@H]2O[C@H](CO)[C@@H](O)[C@H]2O)n1", "note": "[Ribavirin, ribavirin]", "values": [{"measurement": "CC50 at 48 h", "setting": "[5]", "value": "> 200", "unit": "µM"}, {"measurement": "EC50", "setting": "[1]; [9]", "value": 21.8, "unit": "µM"}, {"measurement": "EC50", "setting": "[1]; Mus musculus, 48 h, read-out: IP-10-EC50: 50% effective concentration determined by IP-10 inhibition", "value": 21.8, "unit": "µM"}, {"measurement": "EC50", "setting": "[1]; read-out: IP-10-EC50: 50% effective concentration determined by IP-10 inhibition", "value": "17.8 µM and 20.6 µM and 14.2 µM"}, {"measurement": "effect on virus replication / NA activity in lung slices (in words)", "setting": "[2]", "value": "dose dependent inhibition; also recorded: efficiently inhibited virus replication"}, {"measurement": "EC50", "setting": "[2]; read-out: NA-EC50: 50% effective concentration determined by NA inhibition", "value": "25.4 µM and 28.3 µM and 17.7 µM"}]}, {"smiles": "CCN(CC)CCOC(=O)C(Cc1cccc2ccccc12)CC1CCCO1", "note": "(centres unmarked) [Nafronyl oxalate]", "values": [{"measurement": "CC50 at 48 h", "setting": "[5]", "value": 122, "unit": "µM"}, {"measurement": "antiviral activity in MDCK cells (in words)", "setting": "[6]", "value": "known antiviral activity"}, {"measurement": "effect on IP-10 levels in lung slices (in words)", "setting": "[1]", "value": "inhibited the inflammatory response"}, {"measurement": "EC50", "setting": "[1]; [9]", "value": 22.1, "unit": "µM"}, {"measurement": "effect on virus replication / NA activity in lung slices (in words)", "setting": "[2]", "value": "not showing any antiviral activity"}]}]}
